Columns and labels:
Format in all cases: cell-based, mouse
[1] = system: α7 integrin (LacZ reporter in α7βgal+/− myoblasts); assay: Myoblast α7+/LacZ integrin FDG assay (Burkin assay in myoblasts, 96-well); settings: α7+/LacZ myoblasts, 96-well
[2] = system: α7 integrin (LacZ reporter in α7+/LacZ myotubes); assay: Myotube α7 integrin FDG assay (Burkin assay in myotubes, 96-well); settings: myotubes
[3] = system: β-galactosidase in CMV-LacZ C2C12 myotubes; assay: CMV-LacZ secondary screen in C2C12 myotubes (β-Gal stabilizing assay); settings: for CMV-LACZ in Myotubes (β-galactosidase activity relative to DMSO): CMV-LacZ C2C12 myotubes, 96-well format; for CMV-LACZ in Myotubes, signal relative to DMSO: C2C12 CMV-LacZ myotubes, fold relative to DMSO
In short: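 A secondary screen identifies compounds that stabilize β-gal independently of the native promoter, using CMV-LacZ C2C12 cells. Curves span 0.5–40 μM at six levels, in duplicate.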

Row | Structure (SMILES) | CMV-LACZ in Myotubes (β-galactosidase activity relative to DMSO) ([3]; 5 uM) | CMV-LACZ in Myotubes (β-galactosidase activity relative to DMSO) ([3]; 10 uM) | CMV-LACZ in Myotubes (β-galactosidase activity relative to DMSO) ([3]; 20 uM) | CMV-LACZ in Myotubes (β-galactosidase activity relative to DMSO) ([3]; 40 uM) | Burkin Assay in Myoblasts, value relative to DMSO ([1]; 0.5 uM) | Burkin Assay in Myoblasts, value relative to DMSO ([1]; 1 uM) | Burkin Assay in Myoblasts, value relative to DMSO ([1]; 5 uM) | Burkin Assay in Myoblasts, value relative to DMSO ([1]; 10 uM) | Burkin Assay in Myoblasts, value relative to DMSO ([1]; 20 uM) | Burkin Assay in Myoblasts, value relative to DMSO ([1]; 40 uM) | Burkin Assay in Myotubes (signal relative to DMSO) ([2]; 0.5 uM) | Burkin Assay in Myotubes (signal relative to DMSO) ([2]; 1 uM) | Burkin Assay in Myotubes (signal relative to DMSO) ([2]; 5 uM) | Burkin Assay in Myotubes (signal relative to DMSO) ([2]; 10 uM) | Burkin Assay in Myotubes (signal relative to DMSO) ([2]; 20 uM) | Burkin Assay in Myotubes (signal relative to DMSO) ([2]; 40 uM) | CMV-LACZ in Myotubes, signal relative to DMSO ([3]; 5 uM) | CMV-LACZ in Myotubes, signal relative to DMSO ([3]; 10 uM) | CMV-LACZ in Myotubes, signal relative to DMSO ([3]; 20 uM) | CMV-LACZ in Myotubes, signal relative to DMSO ([3]; 40 uM) | further results
1 | O=C(Nc1ccc(S(=O)(=O)Nc2nccs2)cc1)c1ccccc1OC(F)F [MLS002164687-01] | 0.7625 | 0.922 | 0.968 | 1.113 | – | – | – | – | – | – | – | – | – | – | – | – | – | – | – | – | fold induction at 0.5 µM ([1]; Mus musculus, Myoblast, 48 h, 0.5 uM, read-out: Burkin Assay in Myoblasts, value relative to DMSO): 0.775; fold induction at 1 µM ([1]; Mus musculus, Myoblast, 48 h, 1 uM, read-out: Burkin Assay in Myoblasts, value relative to DMSO): 0.819; fold induction at 5 µM ([1]; Mus musculus, Myoblast, 48 h, 5 uM, read-out: Burkin Assay in Myoblasts, value relative to DMSO): 0.695; fold induction at 10 µM ([1]; Mus musculus, Myoblast, 48 h, 10 uM, read-out: Burkin Assay in Myoblasts, value relative to DMSO): 0.849; fold induction at 20 µM ([1]; Mus musculus, Myoblast, 48 h, 20 uM, read-out: Burkin Assay in Myoblasts, value relative to DMSO): 0.838; fold induction at 40 µM ([1]; Mus musculus, Myoblast, 48 h, 40 uM, read-out: Burkin Assay in Myoblasts, value relative to DMSO): 0.819; fold induction at 0.5 µM ([2]; Mus musculus, Myotube, 0.5 uM, read-out: Burkin Assay in Myotubes (signal relative to DMSO)): 0.853; fold induction at 1 µM ([2]; Mus musculus, Myotube, 1 uM, read-out: Burkin Assay in Myotubes (signal relative to DMSO)): 1; fold induction at 5 µM ([2]; Mus musculus, Myotube, 5 uM, read-out: Burkin Assay in Myotubes (signal relative to DMSO)): 1.23; fold induction at 10 µM ([2]; Mus musculus, Myotube, 10 uM, read-out: Burkin Assay in Myotubes (signal relative to DMSO)): 1.37; fold induction at 20 µM ([2]; Mus musculus, Myotube, 20 uM, read-out: Burkin Assay in Myotubes (signal relative to DMSO)): 1.02; fold induction at 40 µM ([2]; Mus musculus, Myotube, 40 uM, read-out: Burkin Assay in Myotubes (signal relative to DMSO)): 1.06
2 | CSc1ncccc1C(=O)OCC(=O)c1cc(C)n(C)c1C [MLS002245351-01] | 0.8306 | 1.001 | 1.009 | 0.9307 | 1.082 | 1.037 | 1.034 | 0.9704 | 0.9001 | 0.8657 | 1.047 | 0.9463 | 1.107 | 1.042 | 1.061 | 1.031 | – | – | – | – | –
3 | N#Cc1ccccc1S(=O)(=O)N1CCN(C(=O)C2CCCCC2)CC1 [MLS002251986-01] | – | – | – | – | – | – | – | – | – | – | – | – | – | – | – | – | 0.9831 | 0.9609 | 0.8238 | 0.9776 | Burkin Assay in Myoblasts, signal relative to DMSO ([1]; 0.5 uM): 1.046; Burkin Assay in Myoblasts, signal relative to DMSO ([1]; 1 uM): 0.9231; Burkin Assay in Myoblasts, signal relative to DMSO ([1]; 5 uM): 0.9512; Burkin Assay in Myoblasts, signal relative to DMSO ([1]; 10 uM): 0.8667; Burkin Assay in Myoblasts, signal relative to DMSO ([1]; 20 uM): 0.9793; Burkin Assay in Myoblasts, signal relative to DMSO ([1]; 40 uM): 0.9184; Burkin Assay in Myotubes, α7 integrin LacZ reporter signal relative to DMSO ([2]; 0.5 uM): 1.121; Burkin Assay in Myotubes, α7 integrin LacZ reporter signal relative to DMSO ([2]; 1 uM): 0.9515; Burkin Assay in Myotubes, α7 integrin LacZ reporter signal relative to DMSO ([2]; 5 uM): 1.073; Burkin Assay in Myotubes, α7 integrin LacZ reporter signal relative to DMSO ([2]; 10 uM): 1.088; Burkin Assay in Myotubes, α7 integrin LacZ reporter signal relative to DMSO ([2]; 20 uM): 0.9882; Burkin Assay in Myotubes, α7 integrin LacZ reporter signal relative to DMSO ([2]; 40 uM): 0.9112
4 | CCc1c(C2(O)CCCCC2)[nH]c2ncccc12 [MLS002402866-01] | – | – | – | – | 1.037 | 1.1052 | 0.9113 | 0.9376 | 0.8943 | 0.7689 | 1.09 | 1.258 | 1.181 | 1 | 1.075 | 0.9237 | 0.8739 | 0.7966 | 0.832 | 0.7307 | –

Reference: patent publication US9980943B2, “Methods of treating muscular dystrophy” (BOARD OF REGENTS OF THE NEVADA SYSTEM OF HIGHER EDUCATION, …, priority 2013, dated 2018)
